Source: publication PMC4834193 (Journal of medicinal chemistry, 2015)
Entries after “also recorded” stand apart in the source; their conditions may differ.

Columns and labels:
human 5-HT2A = human 5-HT2A (Homo sapiens, UniProt P28223); assay: Calcium flux; details: from functional EC50 values
C57BL/6J mice = assay: Amphetamine-induced hyperactivity, open field activity; details: 3 mg/kg AMPH; for AMPH-stimulated hyperlocomotion: 10 or 20 mg/kg ip, relative to Veh–AMPH group; for AMPH-stimulated hyperlocomotion at 20 mg/kg: 20 mg/kg ip
human 5-HT2B [1] = biological target: T1, human 5-HT2B (Homo sapiens, UniProt P41595); assay: PDSP binding study, 5-HT2B
T1 sequence (P41595 whole entry): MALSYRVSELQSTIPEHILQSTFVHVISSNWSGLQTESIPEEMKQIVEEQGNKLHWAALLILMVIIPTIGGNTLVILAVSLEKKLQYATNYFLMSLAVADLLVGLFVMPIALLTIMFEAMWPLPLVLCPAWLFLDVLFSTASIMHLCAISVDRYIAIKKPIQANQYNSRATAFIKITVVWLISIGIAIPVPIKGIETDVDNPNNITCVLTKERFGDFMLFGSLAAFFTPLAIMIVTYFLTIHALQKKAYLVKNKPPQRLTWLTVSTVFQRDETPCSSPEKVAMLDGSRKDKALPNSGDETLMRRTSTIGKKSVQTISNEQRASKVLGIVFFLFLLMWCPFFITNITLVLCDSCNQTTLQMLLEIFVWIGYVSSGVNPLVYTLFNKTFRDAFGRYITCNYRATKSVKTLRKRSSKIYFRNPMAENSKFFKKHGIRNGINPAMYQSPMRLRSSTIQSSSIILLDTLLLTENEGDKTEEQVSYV

5-HT2C receptor = biological target: T2, 5-HT2C receptor (Homo sapiens, UniProt P28335); assay: PDSP binding study, 5-HT2C
T2 sequence (P28335 33-458): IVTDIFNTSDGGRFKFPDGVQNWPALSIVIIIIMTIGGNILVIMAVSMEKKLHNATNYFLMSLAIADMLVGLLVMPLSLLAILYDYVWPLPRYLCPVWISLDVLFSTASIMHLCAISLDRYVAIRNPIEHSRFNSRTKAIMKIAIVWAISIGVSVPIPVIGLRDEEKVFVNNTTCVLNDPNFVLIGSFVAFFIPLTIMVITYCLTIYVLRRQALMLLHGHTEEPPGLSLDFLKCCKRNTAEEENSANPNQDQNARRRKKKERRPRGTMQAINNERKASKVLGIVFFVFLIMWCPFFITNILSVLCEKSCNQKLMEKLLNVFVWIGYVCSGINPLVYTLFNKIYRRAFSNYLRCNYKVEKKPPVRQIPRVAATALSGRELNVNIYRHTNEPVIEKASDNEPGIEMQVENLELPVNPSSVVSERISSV

hERG [2] = biological target: hERG (Homo sapiens, UniProt Q12809); assay: hERG inhibition, CHO cells, automated patch-clamp; assay type: cell-based
hERG (Homo sapiens, UniProt Q12809), sequence (Q12809 whole entry): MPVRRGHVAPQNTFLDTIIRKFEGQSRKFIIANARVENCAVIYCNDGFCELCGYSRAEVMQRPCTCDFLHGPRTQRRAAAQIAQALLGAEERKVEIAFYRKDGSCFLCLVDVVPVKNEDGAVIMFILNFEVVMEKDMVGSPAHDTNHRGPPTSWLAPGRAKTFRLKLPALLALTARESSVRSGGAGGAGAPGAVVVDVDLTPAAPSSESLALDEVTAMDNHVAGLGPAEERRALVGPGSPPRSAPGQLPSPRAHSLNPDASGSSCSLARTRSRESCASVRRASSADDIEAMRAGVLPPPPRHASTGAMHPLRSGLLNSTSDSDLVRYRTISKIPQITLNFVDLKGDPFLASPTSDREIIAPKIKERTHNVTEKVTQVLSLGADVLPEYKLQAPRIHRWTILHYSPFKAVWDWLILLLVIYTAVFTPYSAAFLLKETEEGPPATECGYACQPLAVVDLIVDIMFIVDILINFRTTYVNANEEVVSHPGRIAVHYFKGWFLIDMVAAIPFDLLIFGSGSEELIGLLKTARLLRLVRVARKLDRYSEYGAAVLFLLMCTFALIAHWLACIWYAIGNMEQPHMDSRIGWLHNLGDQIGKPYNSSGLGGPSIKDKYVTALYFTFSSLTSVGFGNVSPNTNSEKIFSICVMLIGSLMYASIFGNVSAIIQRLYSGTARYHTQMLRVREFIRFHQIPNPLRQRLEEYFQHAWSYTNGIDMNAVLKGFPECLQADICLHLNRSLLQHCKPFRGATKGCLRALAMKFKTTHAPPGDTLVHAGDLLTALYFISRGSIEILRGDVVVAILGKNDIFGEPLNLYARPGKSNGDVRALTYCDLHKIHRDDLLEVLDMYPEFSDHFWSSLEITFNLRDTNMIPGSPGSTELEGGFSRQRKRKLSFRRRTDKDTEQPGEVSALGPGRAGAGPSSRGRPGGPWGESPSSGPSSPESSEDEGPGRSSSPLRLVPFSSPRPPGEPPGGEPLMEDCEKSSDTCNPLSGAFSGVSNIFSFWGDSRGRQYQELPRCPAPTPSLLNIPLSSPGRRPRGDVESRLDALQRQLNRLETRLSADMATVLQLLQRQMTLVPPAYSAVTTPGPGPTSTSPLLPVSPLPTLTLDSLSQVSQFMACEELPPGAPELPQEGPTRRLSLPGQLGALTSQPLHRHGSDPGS

[3] = tested on: TA98, TA100, TA1535, and TA1537 strains; assay type: cell-based; details: with/without S9, 10, 50, and 100 µM
[4] = Brain penetration study in CD1 mice; assay type: in vivo; details: CD1, mouse, intraperitoneal, 10 mg/kg
5-HT2A = details: cited from earlier work
human 5-HT2B [5] = biological target: T1, human 5-HT2B; assay: Calcium flux
hERG [6] = details: previous studies; cited from earlier work
[7] = clinical trials, compared to placebo group; cited from earlier work
CYP3A = assay: CYP inhibition, human liver microsomes; details: substrate midazolam
[8] = cited from earlier work
human 5-HT2B [9] = biological target: T1, human 5-HT2B; details: cited from earlier work

human 5-HT2A, sequence (P28223 whole entry): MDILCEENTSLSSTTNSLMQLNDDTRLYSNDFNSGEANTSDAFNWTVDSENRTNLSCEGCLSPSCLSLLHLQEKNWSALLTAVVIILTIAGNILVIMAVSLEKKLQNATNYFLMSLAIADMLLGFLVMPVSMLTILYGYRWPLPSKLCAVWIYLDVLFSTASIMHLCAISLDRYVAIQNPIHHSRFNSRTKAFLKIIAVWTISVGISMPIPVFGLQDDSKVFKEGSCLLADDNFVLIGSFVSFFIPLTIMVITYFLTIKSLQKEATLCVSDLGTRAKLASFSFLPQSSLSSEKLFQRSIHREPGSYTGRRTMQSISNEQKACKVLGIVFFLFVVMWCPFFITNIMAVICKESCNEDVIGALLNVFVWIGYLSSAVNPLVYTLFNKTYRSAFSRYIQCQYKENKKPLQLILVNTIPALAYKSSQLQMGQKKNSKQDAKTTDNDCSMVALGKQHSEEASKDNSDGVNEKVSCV

Cl.NC[C@H]1C[C@@H]1c1cc(F)ccc1OCCF [(+)-16d, (+)-((1S,2S)-2-(5-Fluoro-2-(2-fluoroethoxy)phenyl)-cyclopropyl)methanamine Hydrochloride]
selectivity for 5-HT2C against 5-HT2A (human 5-HT2A): > 100 fold
AMPH-stimulated hyperlocomotion (C57BL/6J mice): not differentiated by dose
Ki (human 5-HT2B [1]): 30 to 50 nM
Ki (5-HT2C receptor): 30 to 50 nM

C=C(F)COc1ccc(Cl)cc1[C@H]1C[C@@H]1CN.Cl [(+)-13j]
hERG IC50 (hERG [2]): moderate inhibition
AMPH-stimulated hyperlocomotion at 20 mg/kg (C57BL/6J mice): most efficacious
AMPH-stimulated hyperlocomotion (C57BL/6J mice): dose dependently suppressed the hyperactivity
Ames fluctuation test [3]: negative
concentration at 0.5 h ([4]; brain): 17500 ng/g
concentration at 2 h ([4]; brain): 14700 ng/g
concentration at 0.5 h ([4]; plasma): 1440 ng/mL
concentration at 2 h ([4]; plasma): 903 ng/mL

c1cc2c3c(c1)[C@H]1CCC[C@H]1N3CCNC2 [WAY-163909, (7bR,10aR)-1,2,3,4,8,9,10,10a–octahydro-7bH-cyclopenta-[b][1,4]diazepino[6,7,1-hi]indole]
agonist activity at 5-HT2A (5-HT2A): no agonist activity

C=C(C)COc1ccc(Cl)cc1[C@H]1C[C@@H]1CN [(+)-13k]
EC50 (human 5-HT2B [5]): 6090 nM
Emax (human 5-HT2B [5]; read-out: Emax 5-HT2B, normalized to internal 5-HT reference): 39%

Cl.NC[C@H]1C[C@@H]1c1cc(Cl)ccc1OCCF [(+)-13l]
AMPH-stimulated hyperlocomotion (C57BL/6J mice): not differentiated by dose
concentration at 0.5 h ([4]; brain): 12800 ng/g
concentration at 2 h ([4]; brain): 13400 ng/g
concentration at 0.5 h ([4]; plasma): 1200 ng/mL
concentration at 2 h ([4]; plasma): 874 ng/mL

NC[C@H]1C[C@@H]1c1cc(F)ccc1OCC1CC1 [Compound 8]
hERG inhibition (hERG [6]): no hERG inhibition

C=CCOc1ccc(F)cc1[C@H]1C[C@@H]1CN.Cl [(+)-16b, (+)-((1S,2S)-2-(2-(Allyloxy)-5-fluorophenyl)cyclopropyl)-methanamine Hydrochloride]
AMPH-stimulated hyperlocomotion at 20 mg/kg (C57BL/6J mice): most efficacious; also recorded: completely reversed
AMPH-stimulated hyperlocomotion (C57BL/6J mice): dose dependently suppressed the hyperactivity
Ki (human 5-HT2B [1]): 30 to 50 nM
Ki (5-HT2C receptor): 30 to 50 nM

C[C@H]1CNCCc2ccc(Cl)cc21 [lorcaserin]
incidence of cardiac valve disorders [7]: higher incidence of cardiac valve disorders

C=CCOc1ccc(Cl)cc1[C@H]1C[C@@H]1CN.O=C(O)C(F)(F)F [(+)-13h]
CYP inhibition at 10 µM, 3A (CYP3A): 27%

Clc1cccc(COc2cncc(N3CCNCC3)n2)c1 [CP-809,101, 2-(3-chlorobenzyloxy)-6-(piperazinyl)-pyrazine]
genotoxicity [8]: genotoxicity
5-HT2C selectivity against 5-HT2B (human 5-HT2B [9]): about 600 fold
